According to patent publication US20220168427A1 (Ranok Therapeutics (Hangzhou) Co. Ltd., priority 2019, published 2022):
pIC50: −log10 of the molar value.

Key:
BRD4 (BD1+BD2) = molecular target: T1, BRD4 (BD1+BD2) (Homo sapiens, UniProt O60885); settings: read-out: BRD4 Binding Potency
T1 construct: 1.8 μg/ml recombinant BRD4 (BD1+BD2 domains) protein

MV4-11 cells = test: MV4-11 Cell Cytotoxicity Assay; type: cell-based, human; settings: human, MV4-11 cells, CCK-8
Text: % Inhibition=100−(D−B)/(S−B)*100%.
S: The absorbance of the maximum (cells with DMSO)
B: The absorbance of the minimum (medium with DMSO)

HSP90α = HSP90α (Homo sapiens, UniProt P07900); test: HSP90α Binding Fluorescent Polarization (FP) Assay; settings: competition with FITC-geldanamycin; read-out: HSP90 Binding Potency
Summary of the method: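 Duplicate wells held BSA buffer, FITC-geldanamycin tracer, compound (3-fold dilution plate spanning 40 μM–2.0 nM) and recombinant protein diluted to 28 μg/ml before addition. Polarization read at 30, 60 and 120 min, 25 °C. Background-corrected mP values gave IC50 through a four-parameter inhibitor-response fit.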

Row | Structure (SMILES) | pIC50 (BRD4 (BD1+BD2)) | IC50 at 72 h (MV4-11 cells) | pIC50 (HSP90α)
1 | Cc1sc2c(c1C)C(c1ccc(Cl)cc1)=N[C@@H](CC(=O)N1CCC(N3CCN(c4ccc(-n5c(O)nnc5-c5cc(C(C)C)c(O)cc5O)cc4)CC3)CC1)c1nnc(C)n1-2 [Compound 43, 2-((6S)-4-(4-chlorophenyl)-2,3,9-trimethyl-6H-thieno[3,2-f][1,2,4]triazolo[4,3-a][1,4]diazepin-6-yl)-1-(4-(4-(4-(3-(2,4-dihydroxy-5-isopropylphenyl)-5-hydroxy-4H-1,2,4-triazol-4-yl)phenyl)piperazin-1-yl)piperidin-1-yl)ethanone, trifluoroacetic acid] | 6.00 to 7.00 | < 100 nM | 6.00 to 7.00
2 | Cc1sc2c(c1C)C(c1ccc(Cl)cc1)=N[C@@H](CC(=O)NCC1CCN(C(=O)C3CCN(Cc4ccc(-n5c(O)nnc5-c5cc(C(C)C)c(O)cc5O)cc4)CC3)C1)c1nnc(C)n1-2 (stereo partly drawn) [Compound 45, 2-((S)-4-(4-chlorophenyl)-2,3,9-trimethyl-6H-thieno[3,2-f][1,2,4]triazolo[4,3-a][1,4]diazepin-6-yl)-N-((1-(1-(4-(3-(2,4-dihydroxy-5-isopropylphenyl)-5-hydroxy-4H-1,2,4-triazol-4-yl)benzyl)piperidine-4-carbonyl)pyrrolidin-3-yl)methyl)acetamide, trifluoroacetic acid] | > 7.00 | < 100 nM | > 7.00
3 | Cc1sc2c(c1C)C(c1ccc(Cl)cc1)=N[C@@H](CC(=O)NCC(=O)NCC1CCN(C(=O)C3CCN(Cc4ccc(-n5c(O)nnc5-c5cc(C(C)C)c(O)cc5O)cc4)CC3)CC1)c1nnc(C)n1-2 [Compound 46, (S)-2-(4-(4-chlorophenyl)-2,3,9-trimethyl-6H-thieno[3,2-f][1,2,4]triazolo[4,3-a][1,4]diazepin-6-yl)-N-(2-(((1-(1-(4-(3-(2,4-dihydroxy-5-isopropylphenyl)-5-hydroxy-4H-1,2,4-triazol-4-yl)benzyl)piperidine-4-carbonyl)piperidin-4-yl)methyl)amino)-2-oxoethyl)acetamide, trifluoroacetic acid] | > 7.00 | < 100 nM | > 7.00
4 | Cc1sc2c(c1C)C(c1ccc(Cl)cc1)=N[C@@H](CC(=O)NCC(=O)NCCOc1ccc(-n3c(S)nnc3-c3cc(C(C)C)c(O)cc3O)cc1)c1nnc(C)n1-2 [Compound 48, (S)-2-(4-(4-chlorophenyl)-2,3,9-trimethyl-6H-thieno[3,2-f][1,2,4]triazolo[4,3-a][1,4]diazepin-6-yl)-N-(2-((2-(4-(3-(2,4-dihydroxy-5-isopropylphenyl)-5-mercapto-4H-1,2,4-triazol-4-yl)phenoxy)ethyl)amino)-2-oxoethyl)acetamide] | 6.00 to 7.00 | 100 to 1000 nM | > 7.00
5 | Cc1sc2c(c1C)C(c1ccc(Cl)cc1)=N[C@@H](CC(=O)NCCOCCN1CCN(Cc3ccc(-n4c(O)nnc4-c4cc(C(C)C)c(O)cc4O)cc3)CC1)c1nnc(C)n1-2 [Compound 49, 2-((6S)-4-(4-chlorophenyl)-2,3,9-trimethyl-6H-thieno[3,2-f][1,2,4]triazolo[4,3-a][1,4]diazepin-6-yl)-N-(2-(2-(4-(4-(3-(2,4-dihydroxy-5-isopropylphenyl)-5-hydroxy-4H-1,2,4-triazol-4-yl)benzyl)piperazin-1-yl)ethoxy)ethyl)acetamide, trifluoroacetic acid, trifluoroacetic acid, trifluoroacetic acid, trifluoroacetic …] | 6.00 to 7.00 | < 100 nM | > 7.00
6 | Cc1sc2c(c1C)C(c1ccc(Cl)cc1)=N[C@@H](CC(=O)NCCOc1cccc(CN(C)Cc3ccc(-n4c(O)nnc4-c4cc(C(C)C)c(O)cc4O)cc3)c1)c1nnc(C)n1-2 [Compound 50, 2-((6S)-4-(4-chlorophenyl)-2,3,9-trimethyl-6H-thieno[3,2-f][1,2,4]triazolo[4,3-a][1,4]diazepin-6-yl)-N-(2-(3-(((4-(3-(2,4-dihydroxy-5-isopropylphenyl)-5-hydroxy-4H-1,2,4-triazol-4-yl)benzyl)(methyl)amino)methyl)phenoxy)ethyl)acetamide, trifluoroacetic acid, trifluoroacetic acid, trifluoroacetic acid, trifluoroacetic …] | < 6.00 | < 100 nM | 6.00 to 7.00
7 | Cc1sc2c(c1C)C(c1ccc(Cl)cc1)=N[C@@H](CC(=O)NCCOCc1ccc(-n3c(O)nnc3-c3cc(C(C)C)c(O)cc3O)cc1)c1nnc(C)n1-2 [Compound 52, 2-((6S)-4-(4-chlorophenyl)-2,3,9-trimethyl-6H-thieno[3,2-f][1,2,4]triazolo[4,3-a][1,4]diazepin-6-yl)-N-(2-((4-(3-(2,4-dihydroxy-5-isopropylphenyl)-5-hydroxy-4H-1,2,4-triazol-4-yl)benzyl)oxy)ethyl)acetamide] | < 6.00 | 100 to 1000 nM | > 7.00
8 | Cc1sc2c(c1C)C(c1ccc(Cl)cc1)=N[C@@H](CC(=O)NCC1CCN(C(=O)C3CCN(Cc4ccc(-n5c(O)nnc5-c5cc(C(C)C)c(O)cc5O)cc4)CC3)CC1)c1nnc(C)n1-2 [Compound 53, (S)-2-(4-(4-chlorophenyl)-2,3,9-trimethyl-6H-thieno[3,2-f][1,2,4]triazolo[4,3-a][1,4]diazepin-6-yl)-N-((1-(1-(4-(3-(2,4-dihydroxy-5-isopropylphenyl)-5-hydroxy-4H-1,2,4-triazol-4-yl)benzyl)piperidine-4-carbonyl)piperidin-4-yl)methyl)acetamide, trifluoroacetic acid] | 6.00 to 7.00 | < 100 nM | 6.00 to 7.00
9 | Cc1sc2c(c1C)C(c1ccc(Cl)cc1)=N[C@@H](CC(=O)NCC(=O)NCCOc1ccc(-n3c(O)nnc3-c3cc(C(C)C)c(O)cc3O)cc1)c1nnc(C)n1-2 [Compound 54, (S)-2-(4-(4-chlorophenyl)-2,3,9-trimethyl-6H-thieno[3,2-f][1,2,4]triazolo[4,3-a][1,4]diazepin-6-yl)-N-(2-((2-(4-(3-(2,4-dihydroxy-5-isopropylphenyl)-5-hydroxy-4H-1,2,4-triazol-4-yl)phenoxy)ethyl)amino)-2-oxoethyl)acetamide] | 6.00 to 7.00 | 100 to 1000 nM | > 7.00
10 | Cc1sc2c(c1C)C(c1ccc(Cl)cc1)=N[C@@H](CC(=O)NCC(=O)NCCOCCOc1ccc(-n3c(O)nnc3-c3cc(C(C)C)c(O)cc3O)cc1)c1nnc(C)n1-2 [Compound 55, (S)-2-(4-(4-chlorophenyl)-2,3,9-trimethyl-6H-thieno[3,2-f][1,2,4]triazolo[4,3-a][1,4]diazepin-6-yl)-N-(2-((2-(2-(4-(3-(2,4-dihydroxy-5-isopropylphenyl)-5-hydroxy-4H-1,2,4-triazol-4-yl)phenoxy)ethoxy)ethyl)amino)-2-oxoethyl)acetamide] | 6.00 to 7.00 | 100 to 1000 nM | 6.00 to 7.00
11 | CCc1cc(-c2nnc(O)n2-c2ccc(CNC(=O)C[C@@H]3N=C(c4ccc(Cl)cc4)c4c(sc(C)c4C)-n4c(C)nnc43)cc2)c(O)cc1O [Compound 56, 2-((6S)-4-(4-chlorophenyl)-2,3,9-trimethyl-6H-thieno[3,2-f][1,2,4]triazolo[4,3-a][1,4]diazepin-6-yl)-N-(4-(3-(5-ethyl-2,4-dihydroxyphenyl)-5-hydroxy-4H-1,2,4-triazol-4-yl)benzyl)acetamide] | 6.00 to 7.00 | 100 to 1000 nM | 6.00 to 7.00
